Data reported in a melting point compilation (Tetko et al.; mined from patent text by program, amines drawn as free bases though some values may be those of a salt).

SMILES	melting point
COc1ccc([N+](=O)[O-])c(CS(=O)(=O)c2ccccc2)n1	147 to 149 °C
CN1C(=O)C(NC(=O)Nc2ccc(F)cc2)N=C(c2ccccc2)c2ccccc21 (configuration not stated)	269 to 270 °C
CCCCCCCCCCC#Cc1cccc([C@H]2O[C@@H]2CO)c1	41 to 42 °C
O=C(O)[C@@H]1C[C@H]1Sc1nc2ccccc2cc1-c1ccccc1 (relative stereo)	168 to 170 °C
COc1ccc2c(C)cccc2c1C(F)(F)F	70 to 71 °C
COc1ccc(O)cc1/C=C/C(=O)CC(=O)/C=C/c1cc(O)ccc1Br	90 to 96 °C
CC(=O)n1nc(C(N)=O)c2ccccc21	165 to 171 °C
Nc1cnc2c(NC(=O)c3c(Cl)cccc3Cl)cccc2c1-n1ccnc1	> 250 °C
CC(C)c1nn(-c2ccc(Cl)cc2NO)c(=O)o1	129 °C
COC(=O)COc1cc(C)ccc1C=O	63 to 64 °C
CN=c1[nH]c(-c2cc(C)c(OCCCc3cc(C)no3)c(C)c2)no1	126 to 127 °C
N#Cc1ccc(NC(=CNCC(=O)O)[N+](=O)[O-])cc1	230 °C
CC(C)Nc1cccnc1N(C)CCOC(=O)c1cc2ccccc2[nH]1	130 to 131 °C
CCOC(=O)C(=NOC)c1nnc(C)s1	79 to 81 °C
O=C(NCCCCCCCCF)N1CCC(Nc2ccc(CCNC[C@H](O)COc3ccc(O)cc3)cc2)CC1	78 to 80 °C
N#CCCNC(=O)c1cccc(-c2ccc3c(c2)C(Nc2ccc(Cl)cc2Cl)CO3)c1 (configuration not stated)	165 to 166 °C
O=C(Nc1ccccc1)Nc1ccc(-c2ccc(C(=O)N3CCN4CCC3CC4)o2)cc1	125 to 130 °C
Cc1nc2ccccc2n1-c1ccc(C(=O)O)cc1	299 to 300 °C
c1ccc(-c2ccc(Nc3nc4ccccc4o3)cc2)cc1	213 to 214 °C
COc1ccccc1C1(Cl)C(=O)Nc2ccc(C)c(Cl)c21 (configuration not stated)	262 to 263 °C
CCCCc1oc2ccccc2c1C(=O)c1cc(Br)c(O[C@H](Cc2ccccc2)C(=O)O)c(Br)c1	56 to 58 °C
CCCc1nc(Nc2cccc(N(C)C)c2)nc(NC2CCN(S(C)(=O)=O)CC2)n1	134 to 136 °C
CC(=O)c1c(C)sc(C)c1CC(N)=O	123 to 125 °C

SMILES	melting point
Cc1ccc(-c2c3c(cc4ccc5c(c24)OCO5)C(=O)NC3=O)cc1	297 to 299 °C
COc1ccc2c(c1)Cc1cc(F)ccc1C(=O)C2	129 to 130 °C
CC1(C)CCC(C)(C)c2cc3cc(-c4ccc(C(=O)O)s4)ccc3cc21	254 to 255 °C
Cc1cc2cnnc(OCc3ccccc3)c2n1Cc1ccccc1	124 °C
CCCCCCn1c(=O)c2cn(CC)nc2n(C)c1=O	107 to 108 °C
CCOC(=O)c1cnn(-c2cc(C)cc(C)c2)c1S(C)(=O)=O	120 to 122 °C
COc1cc2c(cc1-c1cccnc1)-c1c(Br)c3c(n1CC2)C(=O)N(C(C)(C)C)CCC3	184 to 186 °C
N#CC1=C(c2ccccc2)Nc2n[nH]cc2C1c1cccc(C#N)c1Br (configuration not stated)	> 270 °C
CC(C)C[C@@H](C(=O)O)N(C)Cc1ccc(C(C)(C)C)cc1	110 to 112 °C
Cn1ccnc1CCNC(=O)c1ccccc1NS(=O)(=O)c1cccc(C(F)(F)F)c1	127 to 129 °C
ClCc1ccc(-c2ccccc2)cn1	73 °C
CC(=O)c1cc2ccccc2cc1C(=O)O	145 °C
O=C(CN1C(=O)[C@H](Cl)[C@H]1[S@@](=O)Cc1ccccc1)NCCCCCCc1ccc(F)cc1	87 to 89 °C
CCNC(=O)Nc1snc(C)c1C(=O)OCC	150 to 151 °C
COCc1sc(C(C)(O)c2ccsc2)nc1C (configuration not stated)	71 to 73 °C
CN(CC(=O)O)C(=O)C(=O)c1cn(Cc2ccccc2)c2ccc(-c3cccc(OC(F)(F)F)c3)cc12	178 to 179 °C
CCn1nc(-c2cccs2)c(C(=O)OCCOC(C)=O)c(Nc2cnccc2C)c1=O	161 to 162 °C
Cn1nnnc1-c1ccc2c(c1)S(=O)(=O)c1ccccc1C2=O	270 to 271 °C
Cc1oc2cc(O)ccc2c(=O)c1C(N)=O	289 to 290 °C
O=C(c1ccccc1)N1CCC2(CC1)Cc1ccccc1C2=O	149 to 154 °C
CC(C)C[C@H](O)[C@H](O)[C@H](Cc1ccccc1)NC(=O)OC(C)(C)C	128 to 130 °C
Nc1cc(=O)n2cc(Cl)c(C(c3c(F)ccc(F)c3F)S(=O)(=O)CCC(F)(F)F)cc2n1 (configuration not stated)	247 °C
CC(=O)OCc1csc(-c2nc3n(c2-c2ccncc2)CCC3)c1	126 °C

SMILES	melting point
CN1C(=S)N(c2ccc(C#N)c(C(F)(F)F)c2)C(=N)C12CCCC2	165 to 166 °C
CC(C)Cc1cc2cc(O)ccc2c(Oc2ccc(/C=C/C(=O)O)cc2)c1-c1ccccc1	126 to 128 °C
CCCCNC1NC(=O)N(c2cccc(C(F)(F)F)c2)C(=O)N1	245 to 247 °C
CCC(CC)N1CCC(CNc2ccc(Cl)cc2C(=O)Nc2ccc(C)cn2)CC1	122 to 124 °C
Brc1ccc2c(c1)C(c1ccccn1)=NCc1nncn1-2	252 to 255 °C
O=C1OCCN1c1ccc([N+](=O)[O-])c(C(F)(F)F)c1	112 to 113 °C
O=c1cc(-c2ccncc2)nc2n1CCC(c1ccncc1)N2 (configuration not stated)	268 to 270 °C
CCc1c2c(nn1-c1ccccc1)c(=O)[nH]c1ccccc12	331 to 334 °C
CNC(=O)c1ccc2c(c1C)OC(c1ccccc1)(c1ccccc1)O2	178 to 180 °C
CC1(C)CC(=O)Nc2cc3nc(-c4cc5ccccc5[nH]4)[nH]c3cc21	264 to 267 °C
C#CCN1CC(=O)N(c2c(C)cccc2C)C1=S	117 to 121 °C
O=C(O)C(Cc1ccccc1)NC(=S)Cc1cccc2ccccc12 (configuration not stated)	130 to 132 °C
O=P(O)(O)C(c1ccc2cc(O)ccc2c1)P(O)(O)=S (configuration not stated)	210 to 211 °C
CC12CC(=O)C3C(CCC4CC(O)CCC43C)C1CCC2C#N (configuration not stated)	190 to 192 °C
C=C(C)c1ccc(OCCO)cc1	78 to 80 °C
O=C1c2ccccc2-c2c(Cl)nc3ccccc3c21	149 to 150 °C
C=CCN(c1ncnc2c1ncn2CC(C)O)C1CCCCC1 (configuration not stated)	108 to 110 °C
CCCCCCCCOc1cc2cc(CO)c(CO)c(-c3ccnc(NN)c3)c2cc1OC	98 to 102 °C
Cc1ccc(C(=O)Nc2ccc(C(=O)N3Cc4ccccc4Cc4ccccc43)cc2)c(C)c1	197 to 199 °C
Cn1c2ccccc2c2c(=O)n([C@@H]3CN4CCC3CC4)ccc21	251 to 252 °C
OCC1OC(c2ccc(F)c(Cc3ccc(-c4nccs4)s3)c2)C(O)C(O)C1O (configuration not stated)	162 °C
CCOC(=O)c1cnc2ccn(-c3ccncc3)n2c1=O	103 to 104 °C

Continued, values first:

melting point	SMILES
78 to 80 °C	C=COC(=O)n1c(SCc2ccc(C)cn2)nc2cscc21
160 °C	O=NN(CCCl)C(=O)NC1(C(=O)Nc2nncs2)CCCC1
63 to 70 °C	CCOCCc1cc(OC)c(-c2ccc(C[C@H](NC(=O)c3c(F)cccc3F)C(=O)O)cc2)c(OC)c1
85 to 87 °C	COc1cc(C=CC(=O)Cc2ccccc2)ccc1O
99 to 101 °C	CCCCOc1ccc(CCCCCCCCC(=O)NO)cc1
112 to 114 °C	Clc1ccc(-c2cc(C3CCN(Cc4ccccc4)CC3)no2)cc1
146 °C	COC(=O)c1ccc(N)c(S(C)(=O)=O)c1
126 °C	CCc1cccc(C)c1CNc1cc(C(=O)N2CCCC2)cc2c1nc(C)n2C
126 to 130 °C	CC(C)(C)NC(=O)[C@@H]1C[C@H](Cl)CN1C(=O)[C@@H](O)[C@@H](N)Cc1ccccc1
192 to 194 °C	CSc1nc(NC(=O)NS(=O)(=O)c2ccccc2C(=O)OC(C)C)nn1C
142 to 143 °C	CCCc1cc(Cl)c2oc(Cc3ccc(O)cc3)c(C)c2c1O
161 °C	O=C(c1cc2ccccc2c(-c2ccccc2Cl)n1)N1CCCCC1
159 to 162 °C	CC(Cn1ccnc1)Cn1cnc2ccc(Br)cc2c1=O (configuration not stated)
148 to 149 °C	CNC(=NS(C)(=O)=O)NCCSCc1nccc(NC(N)=NCC(F)(F)F)n1
137 to 141 °C	CC(NC(=O)c1cc(Cl)ccc1[N+](=O)[O-])C1CC1 (configuration not stated)
165 to 166 °C	Cc1cccc(C)c1N1CC(C)N(c2c(C)cccc2C)C1=NC(=O)Oc1ccccc1 (configuration not stated)
65.5 to 66 °C	C(CSc1nnc(SCCCN2CCOCC2)s1)CN1CCOCC1

melting point	SMILES
89 to 91 °C	COc1cccc(/C(=C\C=C\C(=O)NCCCCc2cccnc2)c2ccccc2)c1
246 °C	N#Cc1c(N)ccc2cc(Cl)cnc12
65 to 67 °C	CC(OC(=O)ON=C(C#N)c1ccccc1)C1CC1 (configuration not stated)
151 to 152 °C	Cn1nc(-c2ccc(Cl)cc2)c2ccccc2c1=O
192 °C	CC(=O)NC(=N)N(C)C1CCN(c2nc3ccccc3n2Cc2ccc(F)cc2)CC1
30 °C	CCOC(=O)C(Cc1cccc2ccccc12)C(=O)OCC
103 to 104 °C	CCCN(CCC)C1Cc2c(-c3ncco3)ccc3c2C(C1)CN3C(=O)c1ccccc1 (single isomer, unassigned; (-))
135 to 140 °C	CC1=NOC(c2c(S(C)(=O)=O)ccc(C(=O)C3=C(O)CCCC3=O)c2C)C1 (configuration not stated)
108 to 110 °C	C=Cc1cc(C(C)NC(=O)C#Cc2ccc(C(C)(C)C)cc2)cc(F)c1NS(C)(=O)=O (configuration not stated)
122 to 123 °C	O=C(NCCO)c1cccc(-c2cccc3nc(Cc4cccc(C(F)(F)F)c4)oc23)c1
117 to 118 °C	CCOC(=O)C(=NO)c1ccc(F)cc1
228 to 230 °C	O=C(O)CCC(=O)N1CCc2cc(S(=O)(=O)N3CCN(c4cccc(Cl)c4)CC3)ccc21
116 °C	NC(=O)c1ccc(F)c2c1OCC(N(CCCCc1c[nH]c3ccc(F)cc13)CC1CC1)C2 (configuration not stated)
122 to 124 °C	CC(Oc1ccccc1Cl)c1nnc(C2C(O)NC(=O)N2C)s1 (configuration not stated)
196 to 201 °C	CCCc1n[nH]c(C(N)=O)c1N
97 to 98 °C	Cn1cnc2c1c(=O)n(CCCCCCOc1ccc(Cl)cc1)c(=O)n2C
170 °C	CC(C)c1ccc(NC(=O)C2CCCc3c(OCc4ccccc4)cccc32)cc1 (configuration not stated)
